Values belong to the compound of their own block, whether it stands above or below them.
Key:
[1] = molecular target: T1, human progesterone receptor A (Homo sapiens, UniProt P06401); experiment: Progesterone receptor-antagonistic action in stably transfected SK-N-MC cells with MMTV-LUC reporter (PR-A); type: cell-based; details: antagonistic potency against 0.1 nmol/l promegestone, 24 hours, luciferase
T1 construct: expressed in transfected cells; host or cells: SK-N-MC human neuroblastoma cells, stably transfected with pRChPR-A-neo and pMMTV-LUC
T1 sequence (P06401 1-769 isoform P06401-2): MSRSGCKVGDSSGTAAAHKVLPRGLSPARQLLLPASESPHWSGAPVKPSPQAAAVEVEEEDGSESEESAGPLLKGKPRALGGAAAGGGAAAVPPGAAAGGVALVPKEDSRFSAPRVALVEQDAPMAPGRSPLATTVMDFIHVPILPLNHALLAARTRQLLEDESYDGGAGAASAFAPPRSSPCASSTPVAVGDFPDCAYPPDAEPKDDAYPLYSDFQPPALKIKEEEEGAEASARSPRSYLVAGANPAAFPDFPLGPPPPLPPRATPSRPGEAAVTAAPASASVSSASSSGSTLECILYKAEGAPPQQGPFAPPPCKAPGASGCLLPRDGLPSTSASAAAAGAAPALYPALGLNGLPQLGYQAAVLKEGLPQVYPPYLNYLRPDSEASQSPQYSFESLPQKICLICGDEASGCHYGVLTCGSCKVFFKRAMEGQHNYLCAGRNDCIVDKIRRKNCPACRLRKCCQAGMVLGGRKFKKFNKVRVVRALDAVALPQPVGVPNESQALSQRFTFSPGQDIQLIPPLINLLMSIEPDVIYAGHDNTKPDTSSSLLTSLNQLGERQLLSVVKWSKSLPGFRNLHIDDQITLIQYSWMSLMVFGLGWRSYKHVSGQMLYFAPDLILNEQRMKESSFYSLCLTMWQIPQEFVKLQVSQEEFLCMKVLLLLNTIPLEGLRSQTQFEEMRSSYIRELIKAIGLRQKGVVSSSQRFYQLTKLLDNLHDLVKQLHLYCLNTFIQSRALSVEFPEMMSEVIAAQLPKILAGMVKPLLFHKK
Method: (§1) Determination of Progesterone Receptor-Antagonistic Action in Stable Transfectants of Human Neuroblastoma Cells (SK-N-MC Cells) with the Human Progesterone A or Progesterone B Receptor and an MN-LUC Reporter Construct
(§2) SK-N-MC cells (human neuroblastoma cells) which have been stably transfected with plasmids expressing the human progesterone receptor B (pRChPR-B-neo) or the human progesterone receptor A (pRChPR-A-neo) and a reporter construct (pMMTV-LUC) were incubated for 24 hours either in the absence (negative control) or in the presence of ascending amounts of the particular test compound (0.01 nmol/l, 0.1 nmol/l, 1 nmol/l, 10 nmol/l, 100 nmol/l and […]), in order to determine the agonistic efficacy. As a positive control of the reporter gene induction, the cells were treated with the synthetic gestagen promegestone (0.01 nmol/l, 0.1 nmol/l, 1 nmol/l, 10 nmol/l, 100 nmol/l and […]). To determine the antagonistic activity, the cells were treated with 0.1 nmol/l promegestone and additionally with ascending amounts of the particular test compound (0.01 nmol/l, 0.1 nmol/l, 1 nmol/l, 10 nmol/l, 100 nmol/l and […]). The activity of the reporter gene LUC (LUC=luciferase) was determined in the cell lysates and measured as RLU (relative light units). All measurements are reported as % efficacy and as EC50 and IC50 concentrations.

[2] = molecular target: T2, human progesterone receptor B (Homo sapiens, UniProt P06401); experiment: Progesterone receptor-antagonistic action in stably transfected SK-N-MC cells with MMTV-LUC reporter (PR-B); type: cell-based; details: antagonistic potency against 0.1 nmol/l promegestone, 24 hours, luciferase
T2 construct: expressed in transfected cells; host or cells: SK-N-MC human neuroblastoma cells, stably transfected with pRChPR-B-neo and pMMTV-LUC
T2 sequence (P06401 1-933): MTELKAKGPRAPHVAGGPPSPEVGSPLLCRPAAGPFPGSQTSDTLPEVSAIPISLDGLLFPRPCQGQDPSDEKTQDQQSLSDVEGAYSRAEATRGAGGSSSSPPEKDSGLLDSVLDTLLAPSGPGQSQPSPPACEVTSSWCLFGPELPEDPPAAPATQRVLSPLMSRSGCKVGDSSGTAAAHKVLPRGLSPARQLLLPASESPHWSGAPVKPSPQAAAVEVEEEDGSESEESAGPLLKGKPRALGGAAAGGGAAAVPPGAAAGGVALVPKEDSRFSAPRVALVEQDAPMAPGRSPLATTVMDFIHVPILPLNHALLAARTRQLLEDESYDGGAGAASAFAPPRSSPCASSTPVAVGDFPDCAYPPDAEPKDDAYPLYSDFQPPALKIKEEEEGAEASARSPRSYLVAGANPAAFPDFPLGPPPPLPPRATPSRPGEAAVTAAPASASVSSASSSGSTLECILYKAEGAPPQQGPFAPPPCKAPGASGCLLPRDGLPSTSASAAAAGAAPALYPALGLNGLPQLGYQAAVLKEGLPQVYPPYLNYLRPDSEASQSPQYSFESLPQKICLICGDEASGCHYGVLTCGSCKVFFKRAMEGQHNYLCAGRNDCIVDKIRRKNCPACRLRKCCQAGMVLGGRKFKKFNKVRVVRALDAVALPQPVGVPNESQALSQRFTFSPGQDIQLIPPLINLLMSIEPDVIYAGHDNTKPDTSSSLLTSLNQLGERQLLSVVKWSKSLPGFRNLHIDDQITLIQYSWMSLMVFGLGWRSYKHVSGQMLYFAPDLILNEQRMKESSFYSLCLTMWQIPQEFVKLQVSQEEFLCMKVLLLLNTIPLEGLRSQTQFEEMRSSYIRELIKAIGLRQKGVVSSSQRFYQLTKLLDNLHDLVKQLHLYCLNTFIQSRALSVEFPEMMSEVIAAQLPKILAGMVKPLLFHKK
Method: as §1, §2

Compound: C[C@]12C[C@H](c3ccc(/C=C/CNC(=O)Nc4ccc(N5CCCCC5)cc4)cc3)C3=C4CCC(=O)C=C4CC[C@H]3[C@@H]1CC[C@@]2(O)C(F)(F)C(F)(F)F [Example 58, 1-{(E)-3-[4-((8S,11R,13S,14S,17S)-17-hydroxy-13-methyl-3-oxo-17-pentafluoroethyl-2,3,6,7,8,11,12,13,14,15,16,17-dodecahydro-1H-cyclopenta[a]phenanthren-11-yl)phenyl]allyl}-3-(4-piperidin-1-ylphenyl)urea]
IC50 [1]: 0.5 nM

Compound: C=C(C)c1ccc([C@H]2C[C@@]3(C)[C@@H](CC[C@@]3(O)C(F)(F)C(F)(F)F)[C@@H]3CCC4=CC(=O)CCC4=C32)cc1 [Example 11, (8S,11R,13S,14S,17S)-17-hydroxy-11-(4-isopropenylphenyl)-13-methyl-17-pentafluoroethyl-1,2,6,7,8,11,12,13,14,15,16,17-dodecahydrocyclopenta[a]phenanthren-3-one]
IC50 [2]: 0.012 nM

Compound: COc1ccc(C/C=C/c2ccc([C@H]3C[C@@]4(C)[C@@H](CC[C@@]4(O)C(F)(F)C(F)(F)F)[C@@H]4CCC5=CC(=O)CCC5=C43)cc2)cc1 [Example 3, (8S,11R,13S,14S,17S)-17-hydroxy-11-{4-[(E)-3-(4-methoxyphenyl)-propenyl]phenyl}-13-methyl-17-pentafluoroethyl-1,2,6,7,8,11,12,13,14,15,16,17-dodecahydrocyclopenta[a]phenanthren-3-one]
IC50 [1]: 1.5 nM | IC50 [2]: 1.8 nM

Compound: C[C@]12C[C@H](c3ccc(/C=N/OCc4ccc(Cl)c(Cl)c4)cc3)C3=C4CCC(=O)C=C4CC[C@H]3[C@@H]1CC[C@@]2(O)C(F)(F)C(F)(F)F [Example 37, 4-((8S,11R,13S,14S,17S)-17-hydroxy-13-methyl-3-oxo-17-pentafluoroethyl-2,3,6,7,8,11,12,13,14,15,16,17-dodecahydro-1H-cyclopenta[a]phenanthren-11-yl)benzaldehyde O-(3,4-dichlorobenzyl)oxime]
IC50 [1]: 0.4 nM | IC50 [2]: 0.5 nM

Compound: C[C@]12C[C@H](c3ccc(/C=C/CNC(=O)Nc4ccccc4)cc3)C3=C4CCC(=O)C=C4CC[C@H]3[C@@H]1CC[C@@]2(O)C(F)(F)C(F)(F)F [Example 42, 1-{(E)-3-[4-((8S,11R,13S,14S,17S)-17-hydroxy-13-methyl-3-oxo-17-pentafluoroethyl-2,3,6,7,8,11,12,13,14,15,16,17-dodecahydro-1H-cyclopenta[a]phenanthren-11-yl)phenyl]allyl}-3-phenylurea]
IC50 [1]: 0.1 nM

Compound: CCOC(=O)/C=C/C=C/c1ccc([C@H]2C[C@@]3(C)[C@@H](CC[C@@]3(O)C(F)(F)C(F)(F)F)[C@@H]3CCC4=CC(=O)CCC4=C32)cc1 [Example 15, (2E,4E)-5-[4-((8S,11R,13S,14S,17S)-17-hydroxy-13-methyl-3-oxo-17-pentafluoroethyl-2,3,6,7,8,11,12,13,14,15,16,17-dodecahydro-1H-cyclopenta[a]phenanthren-11-yl)phenyl]penta-2,4-dienoic acid ethyl ester]
IC50 [1]: 0.011 nM | IC50 [2]: < 0.01 nM

Compound: Cc1nc2cc(/C=C/c3cccc([C@H]4C[C@@]5(C)[C@@H](CC[C@@]5(O)C(F)(F)C(F)(F)F)[C@@H]5CCC6=CC(=O)CCC6=C54)c3)ccc2s1 [Example 25, (8S,11R,13S,14S,17S)-17-hydroxy-13-methyl-11-{3-[(E)-2-(2-methylbenzothiazol-5-yl)vinyl]phenyl}-17-pentafluoroethyl-1,2,6,7,8,11,12,13,14,15,16,17-dodecahydrocyclopenta[a]phenanthren-3-one]
IC50 [1]: 1 nM | IC50 [2]: 2 nM

Compound: C[C@]12C[C@H](c3ccc(C=NOCc4ccccc4)cc3)C3=C4CCC(=O)C=C4CC[C@H]3[C@@H]1CC[C@@]2(O)C(F)(F)C(F)(F)F [Example 35, 4-((8S,11R,13S,14S,17S)-17-hydroxy-13-methyl-3-oxo-17-pentafluoroethyl-2,3,6,7,8,11,12,13,14,15,16,17-dodecahydro-1H-cyclopenta[a]phenanthren-11-yl)benzaldehyde O-benzyl oxime]
IC50 [1]: 0.1 nM | IC50 [2]: 0.09 nM

Compound: Cc1ccc(NC(=O)NC/C=C/c2ccc([C@H]3C[C@@]4(C)[C@@H](CC[C@@]4(O)C(F)(F)C(F)(F)F)[C@@H]4CCC5=CC(=O)CCC5=C43)cc2)cc1 [Example 45, 1-{(E)-3-[4-((8S,11R,13S,14S,17S)-17-hydroxy-13-methyl-3-oxo-17-pentafluoroethyl-2,3,6,7,8,11,12,13,14,15,16,17-dodecahydro-1H-cyclopenta[a]phenanthren-11-yl)phenyl]allyl}-3-p-tolylurea]
IC50 [1]: 0.1 nM | IC50 [2]: 0.1 nM

Results, then the compound that gave them:

IC50 [1]: 0.09 nM | IC50 [2]: 0.1 nM
Compound: C=CCNC(=O)NC/C=C/c1ccc([C@H]2C[C@@]3(C)[C@@H](CC[C@@]3(O)C(F)(F)C(F)(F)F)[C@@H]3CCC4=CC(=O)CCC4=C32)cc1 [Example 57, 1-allyl-3-{(E)-3-[4-((8S,11R,13S,14S,17S)-17-hydroxy-13-methyl-3-oxo-17-pentafluoroethyl-2,3,6,7,8,11,12,13,14,15,16,17-dodecahydro-1H-cyclopenta[a]phenanthren-11-yl)phenyl]allyl}urea]

IC50 [1]: 0.1 nM | IC50 [2]: 0.1 nM
Compound: CCOC(=O)CNC(=O)NC/C=C/c1ccc([C@H]2C[C@@]3(C)C(CC[C@@]3(O)C(F)(F)C(F)(F)F)C3CCC4=CC(=O)CCC4=C32)cc1 (stereo partly drawn) [Example 51, 3-(3-{(E)-3-[4-((8S,11R,13S,14S,17S)-17-hydroxy-13-methyl-3-oxo-17-pentafluoroethyl-2,3,6,7,8,11,12,13,14,15,16,17-dodecahydro-1H-cyclopenta[a]phenanthren-11-yl)phenyl]allyl}ureido)acetic acid ethyl ester]

IC50 [1]: 0.07 nM | IC50 [2]: 0.09 nM
Compound: C[C@]12C[C@H](c3ccc(/C=C/CNC(=O)NCc4ccccc4)cc3)C3=C4CCC(=O)C=C4CC[C@H]3[C@@H]1CC[C@@]2(O)C(F)(F)C(F)(F)F [Example 46, 1-benzyl-3-{(E)-3-[4-((8S,11R,13S,14S,17S)-17-hydroxy-13-methyl-3-oxo-17-pentafluoroethyl-2,3,6,7,8,11,12,13,14,15,16,17-dodecahydro-1H-cyclopenta[a]phenanthren-11-yl)phenyl]allyl}urea]

IC50 [1]: 0.1 nM
Compound: COc1ccc(NC(=O)NC/C=C/c2ccc([C@H]3C[C@@]4(C)[C@@H](CC[C@@]4(O)C(F)(F)C(F)(F)F)[C@@H]4CCC5=CC(=O)CCC5=C43)cc2)cc1 [Example 54, 1-{(E)-3-[4-((8S,11R,13S,14S,17S)-17-hydroxy-13-methyl-3-oxo-17-pentafluoroethyl-2,3,6,7,8,11,12,13,14,15,16,17-dodecahydro-1H-cyclopenta[a]phenanthren-11-yl)phenyl]allyl}-3-(4-methoxyphenyl)urea]

Source: patent publication US9156877B2, “17-hydroxy-17-pentafluorethyl-estra-4,9(10)-dien-11-benzylidene derivatives, methods for the production thereof and use thereof for treating diseases” (Bayer Intellectual Property GmbH, priority 2009, dated 2015)
